This is an account of results in ChEMBL document CHEMBL1130060, “Novel prodrugs of cyanamide that inhibit aldehyde dehydrogenase in vivo” (1997).

Assay [1] deals with T1, Aldehyde dehydrogenase 1A1 (Rattus norvegicus) (UniProt P51647).
T1 sequence (whole entry): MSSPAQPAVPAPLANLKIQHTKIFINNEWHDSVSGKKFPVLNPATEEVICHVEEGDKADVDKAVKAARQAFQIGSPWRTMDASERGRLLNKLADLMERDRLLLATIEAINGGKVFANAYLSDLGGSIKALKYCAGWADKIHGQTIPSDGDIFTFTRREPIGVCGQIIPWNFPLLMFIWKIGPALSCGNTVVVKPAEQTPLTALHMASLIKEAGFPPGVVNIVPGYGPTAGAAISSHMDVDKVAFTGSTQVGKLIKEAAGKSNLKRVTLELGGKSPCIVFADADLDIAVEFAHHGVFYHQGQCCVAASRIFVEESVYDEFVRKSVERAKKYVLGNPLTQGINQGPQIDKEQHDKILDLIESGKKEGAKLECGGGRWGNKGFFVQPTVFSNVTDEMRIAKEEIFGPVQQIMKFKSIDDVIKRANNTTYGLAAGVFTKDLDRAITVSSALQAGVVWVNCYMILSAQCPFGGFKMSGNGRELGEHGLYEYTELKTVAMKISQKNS
As to the kind of experiment: Inhibitory activity against aldehyde dehydrogenase in rats. Conditions: concentration not given here.

Assay [2] concerns Rattus norvegicus. In words: Blood EtOH level in rats following the administration of the compound. It counts as functional.
Assay [3] concerns Rattus norvegicus. In words: Blood acetaldehyde level in rats following the administration of the compound. The assay is classed as functional.

As for `CC(C)CSC(=N)N`, the inhibition (in general, the drop in the measured response relative to a control, in per cent) in assay [1] was 66%. The same measure, in the same setting: to `CCCCSC(=N)N` belongs 82%. In the case of `CC(=O)NCCSC(=N)N`, the Potency in the assay on Rattus norvegicus [2] worked out at 50.1 mM; in the assay with Rattus norvegicus [3] it was 0.067 mM. As to `C=CCSC(=N)N`, the inhibition in assay [1] is 88%.
